According to ChEMBL document CHEMBL1201862, “PubChem BioAssay data set” (2004):
Active and inactive are the calls of the source.

Assays:
Hexokinase HKDC1 = target: T1, Hexokinase HKDC1 (Homo sapiens, UniProt Q2TB90); assay: HKDC1 hexokinase activators, dose response, biochemical, W721R variant (AID 504730); type: functional
T1 sequence (Q2TB90 whole entry): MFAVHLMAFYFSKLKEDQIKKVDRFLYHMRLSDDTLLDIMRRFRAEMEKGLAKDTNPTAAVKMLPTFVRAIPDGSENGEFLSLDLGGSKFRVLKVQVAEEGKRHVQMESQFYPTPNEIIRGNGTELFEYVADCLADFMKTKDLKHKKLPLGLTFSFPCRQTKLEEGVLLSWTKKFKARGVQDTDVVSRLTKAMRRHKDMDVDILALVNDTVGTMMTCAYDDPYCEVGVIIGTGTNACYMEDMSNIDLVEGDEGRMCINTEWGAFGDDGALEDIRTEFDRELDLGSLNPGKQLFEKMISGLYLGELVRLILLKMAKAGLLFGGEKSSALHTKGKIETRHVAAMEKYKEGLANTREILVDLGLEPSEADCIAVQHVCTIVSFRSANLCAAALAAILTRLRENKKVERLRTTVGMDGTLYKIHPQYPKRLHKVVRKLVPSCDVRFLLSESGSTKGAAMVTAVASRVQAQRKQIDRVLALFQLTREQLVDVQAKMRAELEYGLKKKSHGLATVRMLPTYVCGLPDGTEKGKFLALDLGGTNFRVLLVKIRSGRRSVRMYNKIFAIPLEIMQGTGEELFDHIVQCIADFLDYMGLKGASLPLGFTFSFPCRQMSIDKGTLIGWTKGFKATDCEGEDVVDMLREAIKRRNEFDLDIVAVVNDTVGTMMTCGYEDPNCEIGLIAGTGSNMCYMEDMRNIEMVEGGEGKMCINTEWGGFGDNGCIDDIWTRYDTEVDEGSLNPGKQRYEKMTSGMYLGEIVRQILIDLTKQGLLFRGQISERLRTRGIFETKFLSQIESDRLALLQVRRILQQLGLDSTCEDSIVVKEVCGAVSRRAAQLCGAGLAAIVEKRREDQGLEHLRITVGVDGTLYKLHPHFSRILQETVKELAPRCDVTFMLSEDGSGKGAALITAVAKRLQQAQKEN

Hexokinase-1 = Hexokinase-1 (Homo sapiens, UniProt P19367); assay: hexokinase 1 activators, dose response, selectivity assay for HKDC1 activator project, biochemical (AID 504762); type: functional
[1] = THP-1 cell cytotoxicity, dose response, cytotoxicity control for non-replicating M. tuberculosis project (AID 489025); type: functional
cells = type: functional
[2] = Vero E6 cell cytotoxicity, dose response, cytotoxicity control for non-replicating M. tuberculosis project, secondary assay (AID 492998); type: functional, VeroE6; conditions: Vero C1008
Protein RecA = target: T2, Protein RecA (Mycobacterium tuberculosis, UniProt P9WHJ3); assay: Fluorescence Cell-Free Homogeneous Dose Retest to Identify Inhibitors of RecA-Intein Splicing Activity. [Related pubchem assays (depositor defined):AID2097, AID2223, AID489010, AID492950]; type: functional
T2 sequence (P9WHJ3 whole entry): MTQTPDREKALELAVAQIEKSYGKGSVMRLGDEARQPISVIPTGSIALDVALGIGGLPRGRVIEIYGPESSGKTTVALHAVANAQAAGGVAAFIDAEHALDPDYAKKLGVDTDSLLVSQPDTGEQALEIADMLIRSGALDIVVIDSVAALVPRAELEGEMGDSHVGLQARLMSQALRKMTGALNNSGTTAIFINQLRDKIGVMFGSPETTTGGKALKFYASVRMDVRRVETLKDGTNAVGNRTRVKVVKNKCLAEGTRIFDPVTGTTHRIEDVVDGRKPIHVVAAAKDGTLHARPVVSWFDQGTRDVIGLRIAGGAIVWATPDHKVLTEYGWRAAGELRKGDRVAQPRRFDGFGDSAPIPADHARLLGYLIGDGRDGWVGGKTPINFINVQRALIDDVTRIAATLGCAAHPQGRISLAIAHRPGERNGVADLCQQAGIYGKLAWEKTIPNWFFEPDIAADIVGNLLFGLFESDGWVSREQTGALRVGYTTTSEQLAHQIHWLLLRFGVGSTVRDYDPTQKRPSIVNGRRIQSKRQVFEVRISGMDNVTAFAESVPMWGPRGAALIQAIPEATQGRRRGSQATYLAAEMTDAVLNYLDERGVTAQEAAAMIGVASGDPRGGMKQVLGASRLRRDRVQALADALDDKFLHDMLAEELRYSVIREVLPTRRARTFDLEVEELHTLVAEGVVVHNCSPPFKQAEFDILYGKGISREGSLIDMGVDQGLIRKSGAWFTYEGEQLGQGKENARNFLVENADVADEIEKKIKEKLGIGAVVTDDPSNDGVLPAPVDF

[3] = target: T3, Heat shock factor protein 1 (Mus musculus, UniProt P38532); assay: HSF1 potentiators in luciferase reporter cells, confirmation, cell-based, NIH3T3, luminescence, dose retest (AID 435004); type: functional;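 further: stress induced by proteasome inhibitor MG132 added 30 min after compound; luciferase reporter driven by HSF1 response element in NIH3T3 cells; actives raise luminescence as potentiators of the MG132 stress response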
T3 sequence (P38532 whole entry): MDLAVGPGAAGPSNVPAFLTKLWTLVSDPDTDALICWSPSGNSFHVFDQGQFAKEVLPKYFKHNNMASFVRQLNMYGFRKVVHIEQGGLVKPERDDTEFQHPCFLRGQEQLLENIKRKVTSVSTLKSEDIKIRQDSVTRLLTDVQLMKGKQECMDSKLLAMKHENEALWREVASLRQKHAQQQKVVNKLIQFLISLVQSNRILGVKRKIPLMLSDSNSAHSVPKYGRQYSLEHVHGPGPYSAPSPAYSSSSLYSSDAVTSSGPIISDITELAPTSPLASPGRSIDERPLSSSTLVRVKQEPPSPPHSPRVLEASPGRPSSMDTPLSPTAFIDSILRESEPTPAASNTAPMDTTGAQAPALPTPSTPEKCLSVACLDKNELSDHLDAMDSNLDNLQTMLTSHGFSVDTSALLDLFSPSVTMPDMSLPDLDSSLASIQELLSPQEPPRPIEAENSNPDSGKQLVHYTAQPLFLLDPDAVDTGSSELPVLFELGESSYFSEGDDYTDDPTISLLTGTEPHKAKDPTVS

[4] = target: T4, Microphthalmia-associated transcription factor (Homo sapiens, UniProt O75030); assay: TRPM1 promoter luciferase signal decrease, dose response, MITF inhibitor project, cell-based, SK-MEL-5, cherry-picked, set 3 (AID 493073); type: functional
T4 sequence (O75030 whole entry): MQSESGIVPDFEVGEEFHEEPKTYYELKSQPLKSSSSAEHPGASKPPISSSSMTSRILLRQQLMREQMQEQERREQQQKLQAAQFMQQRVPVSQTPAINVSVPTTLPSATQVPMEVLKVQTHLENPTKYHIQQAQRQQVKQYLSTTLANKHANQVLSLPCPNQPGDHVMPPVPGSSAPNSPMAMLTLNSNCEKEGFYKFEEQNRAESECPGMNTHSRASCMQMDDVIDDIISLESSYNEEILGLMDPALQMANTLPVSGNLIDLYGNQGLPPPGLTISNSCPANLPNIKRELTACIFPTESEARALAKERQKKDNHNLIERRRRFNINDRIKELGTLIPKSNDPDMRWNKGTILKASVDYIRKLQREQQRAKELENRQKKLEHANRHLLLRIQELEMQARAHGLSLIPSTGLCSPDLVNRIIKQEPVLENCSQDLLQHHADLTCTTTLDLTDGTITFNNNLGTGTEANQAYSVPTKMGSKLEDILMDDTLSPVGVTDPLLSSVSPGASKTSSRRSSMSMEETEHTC

[5] = microbe, parasite or virus in culture; type: functional; conditions: Mycobacterium tuberculosis
[6] = target: T5, Replicative DNA helicase DnaB (Mycobacterium tuberculosis, UniProt P9WMR3); assay: DnaB intein splicing inhibitors, dose response, biochemical, cell-free fluorescence (AID 449749); type: functional
T5 sequence (P9WMR3 whole entry): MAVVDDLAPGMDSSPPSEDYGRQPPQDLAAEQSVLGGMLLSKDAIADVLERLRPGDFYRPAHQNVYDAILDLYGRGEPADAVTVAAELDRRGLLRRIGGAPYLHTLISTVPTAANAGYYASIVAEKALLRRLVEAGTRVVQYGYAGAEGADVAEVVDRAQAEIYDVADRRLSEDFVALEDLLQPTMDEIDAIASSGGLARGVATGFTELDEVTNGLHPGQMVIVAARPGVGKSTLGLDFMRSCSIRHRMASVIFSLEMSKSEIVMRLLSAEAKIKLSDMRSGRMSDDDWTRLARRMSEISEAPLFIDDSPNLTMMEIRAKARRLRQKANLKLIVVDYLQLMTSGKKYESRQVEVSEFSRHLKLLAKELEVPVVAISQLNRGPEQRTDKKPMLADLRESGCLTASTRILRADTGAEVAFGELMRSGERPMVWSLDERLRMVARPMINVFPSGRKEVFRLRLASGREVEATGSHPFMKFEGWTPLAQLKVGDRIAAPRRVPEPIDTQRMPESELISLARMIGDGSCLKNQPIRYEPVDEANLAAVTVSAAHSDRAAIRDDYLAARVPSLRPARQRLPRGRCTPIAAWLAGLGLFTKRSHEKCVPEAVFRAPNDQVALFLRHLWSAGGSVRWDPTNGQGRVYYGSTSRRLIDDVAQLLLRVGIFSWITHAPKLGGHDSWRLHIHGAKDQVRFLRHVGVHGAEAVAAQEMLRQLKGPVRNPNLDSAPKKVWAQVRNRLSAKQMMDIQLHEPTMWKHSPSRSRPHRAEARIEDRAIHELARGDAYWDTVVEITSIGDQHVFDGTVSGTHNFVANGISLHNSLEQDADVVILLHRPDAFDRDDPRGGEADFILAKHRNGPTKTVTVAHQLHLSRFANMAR

[7] = target: G-protein coupled receptor 55 (Homo sapiens, UniProt Q9Y2T6); assay: SAR Analysis of Selective Antagonists of GPR55 using an Image-Based Assay - Set 4. [Related pubchem assays (depositor defined):AID2013, AID2026]; type: functional;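 further: antagonism of response to 5 µM lysophosphatidylinositol agonist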
[8] = target: T6, G-protein coupled receptor 35 (Homo sapiens, UniProt Q9HC97); assay: SAR analysis of Antagonists of the GPR35 Receptor using an Image-Based Assay - Set 6. [Related pubchem assays (depositor defined):AID2013, AID2026]; type: functional
Cannabinoid receptor 1 [9] = target: T7, Cannabinoid receptor 1 (Homo sapiens, UniProt P21554); assay: SAR analysis of agonists of the Cannabinoid Receptor 1 using an Image-Based Assay - Set 4. [Related pubchem assays (depositor defined):AID2013, AID2026]; type: functional
[10] = target: T8, High affinity choline transporter 1 (Homo sapiens, UniProt Q9GZV3); assay: CHT inhibitors, dose response, cell-based, 5-point CRC, membrane potential dye (AID 504840); type: functional
T8 sequence (Q9GZV3 whole entry): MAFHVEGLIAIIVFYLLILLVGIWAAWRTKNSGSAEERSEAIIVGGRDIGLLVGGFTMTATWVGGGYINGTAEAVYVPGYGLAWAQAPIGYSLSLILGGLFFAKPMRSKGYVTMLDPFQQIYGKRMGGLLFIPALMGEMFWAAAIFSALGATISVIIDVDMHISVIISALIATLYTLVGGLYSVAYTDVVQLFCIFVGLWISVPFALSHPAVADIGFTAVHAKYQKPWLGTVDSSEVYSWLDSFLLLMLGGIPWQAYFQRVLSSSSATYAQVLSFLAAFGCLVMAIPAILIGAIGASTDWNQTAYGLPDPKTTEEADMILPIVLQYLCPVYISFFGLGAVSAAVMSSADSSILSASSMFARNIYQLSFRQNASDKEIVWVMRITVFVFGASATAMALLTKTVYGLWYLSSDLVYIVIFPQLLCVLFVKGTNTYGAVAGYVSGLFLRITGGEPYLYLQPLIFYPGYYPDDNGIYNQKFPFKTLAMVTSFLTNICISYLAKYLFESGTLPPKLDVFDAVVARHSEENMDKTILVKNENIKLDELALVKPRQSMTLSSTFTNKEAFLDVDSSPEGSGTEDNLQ

Cannabinoid receptor 2 [11] = target: T9, Cannabinoid receptor 2 (Homo sapiens, UniProt P34972); assay: SAR analysis of agonists of the Cannabinoid Receptor 2 using an Image-Based Assay - Set 3. [Related pubchem assays (depositor defined):AID2013, AID2026]; type: functional
[12] = target: T6, G-protein coupled receptor 35; assay: SAR analysis of Agonists of the GPR35 Receptor using an Image-Based Assay - Set 4. [Related pubchem assays (depositor defined):AID2013, AID2026]; type: functional
Cannabinoid receptor 1 [13] = target: T7, Cannabinoid receptor 1; assay: SAR analysis of antagonists of the Cannabinoid Receptor 1 using an Image-Based Assay - Set 4. [Related pubchem assays (depositor defined):AID2013, AID2026]; type: functional
Cannabinoid receptor 2 [14] = target: T9, Cannabinoid receptor 2; assay: SAR analysis of antagonists of the Cannabinoid Receptor 2 using an Image-Based Assay - Set 3. [Related pubchem assays (depositor defined):AID2013, AID2026]; type: functional
[15] = target: COUP transcription factor 2 (Homo sapiens, UniProt P24468); assay: Luminescence-based cell-based high throughput dose response assay to identify inhibitors of COUP-TFII (NR2F2).; type: functional;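 further: HEK293 cells transiently cotransfected with COUP-TFII expression vector and reporter; luciferase reporter luminescence driven by COUP-TFII from the pX2-168 reporter plasmid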
[16] = target: T10, Runt-related transcription factor 1/Core-binding factor subunit beta (Homo sapiens, UniProt Q01196+Q13951); assay: inhibitors of RUNX1 Runt–CBFb-SMMHC binding, primary screen, biochemical, FRET, Cerulean-Runt, Venus-CBFb-SMMHC, uHTS (AID 1434); type: protein assay;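 further: partner is the CBFb-SMMHC leukemia fusion protein rather than wild-type CBFb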
[17] = target: T10, Runt-related transcription factor 1/Core-binding factor subunit beta; assay: inhibitors of RUNX1 Runt–CBFb-SMMHC binding, biochemical, TR-FRET (AID 1438); type: protein assay

T10 sequence (Q01196 whole entry, the tested form may be a part): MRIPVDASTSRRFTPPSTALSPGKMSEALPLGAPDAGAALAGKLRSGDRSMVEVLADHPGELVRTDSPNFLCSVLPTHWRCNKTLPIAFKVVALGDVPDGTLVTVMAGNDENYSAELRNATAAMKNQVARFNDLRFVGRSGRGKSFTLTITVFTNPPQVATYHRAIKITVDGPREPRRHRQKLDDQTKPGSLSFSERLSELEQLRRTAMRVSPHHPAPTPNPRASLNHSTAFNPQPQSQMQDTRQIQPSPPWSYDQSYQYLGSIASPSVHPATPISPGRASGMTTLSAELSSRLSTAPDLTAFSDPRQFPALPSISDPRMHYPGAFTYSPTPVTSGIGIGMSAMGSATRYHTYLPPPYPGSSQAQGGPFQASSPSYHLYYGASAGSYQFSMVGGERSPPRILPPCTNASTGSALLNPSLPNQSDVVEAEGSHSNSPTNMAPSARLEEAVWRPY
T10 sequence (Q13951 whole entry, the tested form may be a part): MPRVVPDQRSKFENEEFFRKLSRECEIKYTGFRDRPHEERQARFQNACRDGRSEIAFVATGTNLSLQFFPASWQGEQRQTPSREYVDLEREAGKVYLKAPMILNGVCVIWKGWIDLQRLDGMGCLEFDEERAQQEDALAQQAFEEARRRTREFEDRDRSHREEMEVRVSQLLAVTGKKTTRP
T6 sequence (Q9HC97 whole entry): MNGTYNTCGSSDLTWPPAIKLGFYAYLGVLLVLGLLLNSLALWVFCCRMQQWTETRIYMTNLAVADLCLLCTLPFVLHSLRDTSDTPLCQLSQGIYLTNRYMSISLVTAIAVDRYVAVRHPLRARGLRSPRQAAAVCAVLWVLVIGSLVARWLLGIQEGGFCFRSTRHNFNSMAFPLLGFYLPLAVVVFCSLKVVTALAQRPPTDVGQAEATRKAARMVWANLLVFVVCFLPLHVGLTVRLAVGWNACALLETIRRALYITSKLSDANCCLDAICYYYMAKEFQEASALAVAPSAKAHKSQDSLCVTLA
T7 sequence (P21554 whole entry): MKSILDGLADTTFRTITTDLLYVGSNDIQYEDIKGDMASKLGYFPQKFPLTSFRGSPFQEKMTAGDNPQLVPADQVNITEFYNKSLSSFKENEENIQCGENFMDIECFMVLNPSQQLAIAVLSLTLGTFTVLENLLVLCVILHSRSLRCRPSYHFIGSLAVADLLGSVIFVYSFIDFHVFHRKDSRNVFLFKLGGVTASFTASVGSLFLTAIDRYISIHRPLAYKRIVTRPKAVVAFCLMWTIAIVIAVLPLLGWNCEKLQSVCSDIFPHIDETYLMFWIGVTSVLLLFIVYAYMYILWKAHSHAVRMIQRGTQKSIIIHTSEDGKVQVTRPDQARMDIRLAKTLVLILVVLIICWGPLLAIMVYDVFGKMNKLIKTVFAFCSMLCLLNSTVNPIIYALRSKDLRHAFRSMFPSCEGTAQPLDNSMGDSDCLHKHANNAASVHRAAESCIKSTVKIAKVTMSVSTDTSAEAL
T9 sequence (P34972 whole entry): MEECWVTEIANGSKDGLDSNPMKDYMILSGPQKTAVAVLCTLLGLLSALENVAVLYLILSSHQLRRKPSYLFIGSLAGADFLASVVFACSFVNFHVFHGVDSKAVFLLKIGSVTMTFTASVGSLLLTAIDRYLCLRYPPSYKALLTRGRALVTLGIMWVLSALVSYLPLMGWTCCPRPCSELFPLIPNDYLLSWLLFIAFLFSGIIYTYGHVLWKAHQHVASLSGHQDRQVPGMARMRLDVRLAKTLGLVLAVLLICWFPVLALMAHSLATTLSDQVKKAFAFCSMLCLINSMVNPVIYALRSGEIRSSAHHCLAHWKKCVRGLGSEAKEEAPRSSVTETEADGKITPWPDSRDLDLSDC
Hexokinase-1, sequence (P19367 whole entry): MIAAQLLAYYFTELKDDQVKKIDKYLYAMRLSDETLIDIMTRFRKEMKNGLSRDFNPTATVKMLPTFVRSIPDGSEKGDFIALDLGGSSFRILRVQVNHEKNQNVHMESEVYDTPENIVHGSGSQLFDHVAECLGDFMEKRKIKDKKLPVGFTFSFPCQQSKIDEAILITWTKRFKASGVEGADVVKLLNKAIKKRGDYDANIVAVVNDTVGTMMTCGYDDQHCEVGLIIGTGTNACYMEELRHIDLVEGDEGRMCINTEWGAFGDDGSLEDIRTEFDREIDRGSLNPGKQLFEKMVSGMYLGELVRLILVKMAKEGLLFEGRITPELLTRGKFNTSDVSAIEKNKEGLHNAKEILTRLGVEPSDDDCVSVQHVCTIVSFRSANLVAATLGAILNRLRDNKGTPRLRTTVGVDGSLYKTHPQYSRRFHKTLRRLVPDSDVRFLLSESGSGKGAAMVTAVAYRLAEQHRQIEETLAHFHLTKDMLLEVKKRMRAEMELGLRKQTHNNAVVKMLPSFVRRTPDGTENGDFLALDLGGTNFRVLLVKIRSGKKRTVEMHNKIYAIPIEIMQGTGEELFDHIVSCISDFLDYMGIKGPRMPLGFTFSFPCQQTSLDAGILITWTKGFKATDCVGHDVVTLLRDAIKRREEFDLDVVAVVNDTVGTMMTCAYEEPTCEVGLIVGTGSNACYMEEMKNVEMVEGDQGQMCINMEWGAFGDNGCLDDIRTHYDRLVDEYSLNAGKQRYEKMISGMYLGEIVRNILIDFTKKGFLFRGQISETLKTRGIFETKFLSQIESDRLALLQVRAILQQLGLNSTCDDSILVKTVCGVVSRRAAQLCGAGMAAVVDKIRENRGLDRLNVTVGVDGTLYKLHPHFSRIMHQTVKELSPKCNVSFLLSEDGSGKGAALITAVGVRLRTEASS
G-protein coupled receptor 55, sequence (Q9Y2T6 whole entry): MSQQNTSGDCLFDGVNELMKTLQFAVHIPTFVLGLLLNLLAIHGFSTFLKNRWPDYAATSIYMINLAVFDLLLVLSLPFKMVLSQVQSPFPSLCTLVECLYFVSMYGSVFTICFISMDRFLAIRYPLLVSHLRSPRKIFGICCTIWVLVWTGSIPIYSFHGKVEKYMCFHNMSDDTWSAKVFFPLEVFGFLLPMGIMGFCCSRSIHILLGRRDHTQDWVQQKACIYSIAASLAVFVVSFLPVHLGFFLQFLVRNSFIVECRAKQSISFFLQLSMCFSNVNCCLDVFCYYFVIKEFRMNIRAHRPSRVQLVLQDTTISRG
COUP transcription factor 2, sequence (P24468 whole entry, the tested form may be a part): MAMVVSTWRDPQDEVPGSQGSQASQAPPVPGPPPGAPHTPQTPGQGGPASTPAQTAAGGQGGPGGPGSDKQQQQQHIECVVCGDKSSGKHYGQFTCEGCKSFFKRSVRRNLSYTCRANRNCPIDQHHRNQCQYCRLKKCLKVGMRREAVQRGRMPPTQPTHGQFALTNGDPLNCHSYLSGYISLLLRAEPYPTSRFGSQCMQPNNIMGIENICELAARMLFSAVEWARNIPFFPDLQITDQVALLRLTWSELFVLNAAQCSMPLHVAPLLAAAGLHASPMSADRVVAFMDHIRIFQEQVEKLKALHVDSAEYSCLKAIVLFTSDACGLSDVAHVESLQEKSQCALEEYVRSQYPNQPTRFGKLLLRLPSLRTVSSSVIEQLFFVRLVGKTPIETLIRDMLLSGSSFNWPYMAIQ

Compound: COc1ccccc1C1=NN=C(Nc2cccc(S(=O)(=O)N(C)C)c2)SC1
- EC50 (Hexokinase HKDC1): 19.5 µM (active)
- EC50 (Hexokinase-1): 20.1 µM (inactive)

Compound: COC(=O)c1ccc2c(c1O)C(=O)c1ccccc1C2=O
- CC50 [1]: > 40 µM (active)
- IC50 (cells): 4.52 µM (active)
- CC50 [2]: > 20 µM (active)
- EC50 (Protein RecA): 0.925 µM (active)
- EC50 [3]: 3.73 µM (active)
- AC50 [4]: 1.61 µM (active)
- CC50 [5]: 24.2 µM (active)
- AC50 [6]: 51.4 µM (active)

Compound: Oc1ccc(-c2n[nH]c(C(F)(F)F)c2-c2ccccc2)c(O)c1
- IC50 [7]: 2.95 µM (active)
- IC50 [8]: > 32 µM (inactive)
- EC50 (Cannabinoid receptor 1 [9]): > 32 µM (inactive)
- IC50 [10]: 11 µM (active)
- EC50 (Cannabinoid receptor 2 [11]): 27.4 µM (inactive)
- EC50 [12]: > 32 µM (inactive)
- IC50 (Cannabinoid receptor 1 [13]): 3.49 µM (active)
- IC50 (Cannabinoid receptor 2 [14]): > 32 µM (inactive)
- IC50 [15]: 10.9 µM (inactive)

Compound: CCOC(=O)N1CCC(NC(=O)c2ccc3c(c2)N(C)CCS3)CC1
- IC50 [16]: > 100 µM (inactive)
- IC50 [17]: > 100 µM (inactive)
